Source: ChEMBL document CHEMBL3098090, “Cytotoxic activity of gypenosides and gynogenin against non-small cell lung carcinoma A549 cells” (Bioorg Med Chem Lett, 2014)
Values after ≈ are worked out from the molar mass of the structure shown.

Tested on: A549
Test: Cytotoxicity against human A549 cells after 48 hrs by MTT assay
Type: functional, cell-based
Conditions: A549, 48 h

Compound	IC50 [µg/mL]
CC(C)=CCC[C@@](C)(O)[C@H]1CC[C@]2(C)[C@@H]1[C@H](O)C[C@@H]1[C@@]3(C)C[C@@H](O)[C@H](O[C@@H]4O[C@H](CO)[C@@H](O)[C@H](O)[C@H]4O[C@@H]4O[C@H](CO)[C@@H](O)[C@H](O)[C@H]4O)C(C)(C)[C@@H]3CC[C@]12C	51 (≈ 63.6 µM)
CC(C)=CCC[C@](C)(O)[C@H]1CC[C@]2(C)[C@@H]1[C@H](O)C[C@@H]1[C@@]3(C)C[C@@H](O)[C@H](O[C@@H]4O[C@H](CO)[C@@H](O)[C@H](O)[C@H]4O[C@@H]4O[C@H](CO)[C@@H](O)[C@H](O)[C@H]4O)C(C)(C)[C@@H]3CC[C@]12C	34.9 (≈ 43.6 µM)
CC(C)=CCC[C@](C)(O[C@@H]1O[C@H](CO)[C@@H](O)[C@H](O)[C@H]1O)[C@H]1CC[C@]2(C)[C@@H]1[C@H](O)C[C@@H]1[C@@]3(C)C[C@@H](O)[C@H](O[C@@H]4O[C@H](CO)[C@@H](O)[C@H](O)[C@H]4O[C@@H]4O[C@H](CO)[C@@H](O)[C@H](O)[C@H]4O)C(C)(C)[C@@H]3CC[C@]12C	52.6 (≈ 54.6 µM)
CC(C)=CCC[C@](C)(O[C@@H]1O[C@H](CO[C@@H]2OC[C@@H](O)[C@H](O)[C@H]2O)[C@@H](O)[C@H](O)[C@H]1O)[C@H]1CC[C@]2(C)[C@@H]1[C@H](O)C[C@@H]1[C@@]3(C)C[C@@H](O)[C@H](O[C@@H]4O[C@H](CO)[C@@H](O)[C@H](O)[C@H]4O[C@@H]4O[C@H](CO)[C@@H](O)[C@H](O)[C@H]4O)C(C)(C)[C@@H]3CC[C@]12C	106 (≈ 96.7 µM)
CC(C)=CCC[C@](C)(O)[C@H]1CC[C@]2(C)[C@@H]1[C@H](O)C[C@@H]1[C@@]3(C)C[C@@H](O)[C@H](O)C(C)(C)[C@@H]3CC[C@]12C	12.5 (≈ 26.3 µM)
CC(C)=CCC[C@](C)(O)[C@H]1CC[C@]2(C)[C@@H]1[C@H](O)C[C@@H]1[C@@]3(C)CC[C@H](O[C@@H]4O[C@H](CO)[C@@H](O)[C@H](O)[C@H]4O[C@@H]4O[C@H](CO)[C@@H](O)[C@H](O)[C@H]4O)C(C)(C)[C@@H]3CC[C@]12C	55.4 (≈ 70.5 µM)
